ChEMBL document CHEMBL1201862, “PubChem BioAssay data set” (2004)
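A five-concentration, 48-hour dose response in 96-well plates underlies each endpoint, interpolated linearly between surrounding concentrations. GI50 marks 50% less growth.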 Activity calls are given as the source filed them. Cut-off read from the data, not from the text of the source: active = GI50 up to about 1.1 µM and inactive = higher.

Assays:
Assay in all cases: growth of human tumour cells (NCI), 48 h
CAKI-1 = test system: CAKI-1
RPMI-8226 = test system: RPMI-8226
HOP-92 = test system: HOP-92
SR = test system: SR
MDA-MB-435 = test system: MDA-MB-435
OVCAR-5 = test system: OVCAR-5
RXF 393 = test system: RXF 393
MOLT-4 = test system: MOLT-4
HCT-116 = test system: HCT-116
K562 = test system: K562
TK-10 = test system: TK-10
786-0 = test system: 786-0
BT-549 = test system: BT-549
OVCAR-8 = test system: OVCAR-8
SNB-19 = test system: SNB-19
HCC 2998 = test system: HCC 2998
PC-3 = test system: PC-3
ACHN = test system: ACHN

Row | SMILES | GI50 (CAKI-1) | GI50 (RPMI-8226) | GI50 (HOP-92) | GI50 (SR) | GI50 (MDA-MB-435) | GI50 (OVCAR-5) | GI50 (RXF 393) | GI50 (MOLT-4) | GI50 (HCT-116) | GI50 (K562) | GI50 (TK-10) | GI50 (786-0) | GI50 (BT-549) | GI50 (OVCAR-8) | GI50 (SNB-19) | GI50 (HCC 2998) | GI50 (PC-3) | GI50 (ACHN)
1 | COc1ccc(C(=O)NCCN(C)C)c2nc3ccccc3cc12 | 0.241 µM (active) | 0.354 µM (active) | 1.32 µM (inactive) | 0.0551 µM (active) | 1.85 µM (inactive) | 0.163 µM (active) | 2.15 µM (inactive) | 0.0411 µM (active) | 0.561 µM (active) | 1.44 µM (inactive) | 1.72 µM (inactive) | 0.305 µM (active) | 3.18 µM (inactive) | 0.655 µM (active) | 0.741 µM (active) | 2.04 µM (inactive) | 1.38 µM (inactive) | 0.21 µM (active)
2 | COc1ccc(OC)c2nc3c(C(=O)NCCN(C)C)cccc3nc12 | 3.22 µM (inactive) | 2.84 µM (inactive) | 4.18 µM (inactive) | 2.17 µM (inactive) | 5.11 µM (inactive) | 10.3 µM (inactive) | 5.85 µM (inactive) | 2.8 µM (inactive) | 1.79 µM (inactive) | 3 µM (inactive) | 4.63 µM (inactive) | 3.05 µM (inactive) | 10.8 µM (inactive) | 2.54 µM (inactive) | 6.76 µM (inactive) | 5.77 µM (inactive) | 4.04 µM (inactive) | 1.98 µM (inactive)
3 | C=C(C)COC(=O)COCC(=O)OCC(=C)C | > 100 µM (inactive) | > 100 µM (inactive) | > 100 µM (inactive) | > 100 µM (inactive) | > 100 µM (inactive) | > 100 µM (inactive) | > 100 µM (inactive) | > 100 µM (inactive) | > 100 µM (inactive) | > 100 µM (inactive) | > 100 µM (inactive) | > 100 µM (inactive) | > 100 µM (inactive) | > 100 µM (inactive) | > 100 µM (inactive) | > 100 µM (inactive) | 95.3 µM (inactive) | > 100 µM (inactive)
4 | CCN(CC)c1ccc2cc(-c3csc(-c4ccc(N(C)C)cc4)n3)c(=O)oc2c1 | > 100 µM (inactive) | > 100 µM (inactive) | > 100 µM (inactive) | > 100 µM (inactive) | > 100 µM (inactive) | > 100 µM (inactive) | > 100 µM (inactive) | > 100 µM (inactive) | > 100 µM (inactive) | > 100 µM (inactive) | > 100 µM (inactive) | > 100 µM (inactive) | > 100 µM (inactive) | > 100 µM (inactive) | > 100 µM (inactive) | > 100 µM (inactive) | > 100 µM (inactive) | > 100 µM (inactive)
5 | O=C(CC(=O)Nc1ccccc1)NNC(c1cc(/N=N/c2ccc(Br)cc2)ccc1O)P(O)O (stereo not drawn) | 3.02 µM (inactive) | 1.86 µM (inactive) | 4.18 µM (inactive) | 0.494 µM (active) | 1.77 µM (inactive) | 6.92 µM (inactive) | > 10 µM (inactive) | 0.321 µM (active) | 0.504 µM (active) | 2.06 µM (inactive) | 0.851 µM (active) | 0.489 µM (active) | 4 µM (inactive) | 0.759 µM (active) | > 10 µM (inactive) | 5.46 µM (inactive) | 0.975 µM (active) | 2.12 µM (inactive)
6 | CCN(CC)CC(=O)Nc1c(C(N)=O)nnn1Cc1cc(Cl)c(C(=O)c2ccc(Cl)cc2)c(Cl)c1 | 22.5 µM (inactive) | 22.3 µM (inactive) | 20.7 µM (inactive) | 23.8 µM (inactive) | 18.5 µM (inactive) | 19.5 µM (inactive) | 10.4 µM (inactive) | 16.3 µM (inactive) | 16.5 µM (inactive) | 17.3 µM (inactive) | 22.8 µM (inactive) | 16.1 µM (inactive) | 17.8 µM (inactive) | 17.7 µM (inactive) | 34.9 µM (inactive) | 17.7 µM (inactive) | 16.8 µM (inactive) | 29.7 µM (inactive)
7 | O=c1c(F)cn(Cc2c(Cl)cccc2Cl)c(=O)n1Cc1c(Cl)cccc1Cl | > 21.5 µM (inactive) | > 31.6 µM (inactive) | 20.3 µM (inactive) | 19.4 µM (inactive) | 29.6 µM (inactive) | > 31.6 µM (inactive) | 19.7 µM (inactive) | 25.6 µM (inactive) | 23.8 µM (inactive) | 26.9 µM (inactive) | > 31.6 µM (inactive) | > 31.6 µM (inactive) | > 31.6 µM (inactive) | > 31.6 µM (inactive) | > 100 µM (inactive) | > 31.6 µM (inactive) | 17.3 µM (inactive) | > 31.6 µM (inactive)
8 | C1CCN2CC3CCCN4CCCC(C2C1)C34 (stereo not drawn) | > 100 µM (inactive) | > 100 µM (inactive) | > 100 µM (inactive) | > 100 µM (inactive) | > 100 µM (inactive) | > 100 µM (inactive) | > 100 µM (inactive) | > 100 µM (inactive) | > 100 µM (inactive) | > 100 µM (inactive) | > 100 µM (inactive) | > 100 µM (inactive) | > 100 µM (inactive) | > 100 µM (inactive) | > 100 µM (inactive) | > 100 µM (inactive) | > 100 µM (inactive) | > 100 µM (inactive)
9 | O=c1nc(N2CCN(c3ccccc3)CC2)ccn1C1OC(CO)C(O)C1O (stereo not drawn) | > 100 µM (inactive) | 36.9 µM (inactive) | 24.2 µM (inactive) | 28.4 µM (inactive) | 32.2 µM (inactive) | > 100 µM (inactive) | > 100 µM (inactive) | 49.7 µM (inactive) | 56 µM (inactive) | 29.4 µM (inactive) | > 100 µM (inactive) | 86.3 µM (inactive) | 53.2 µM (inactive) | 55.7 µM (inactive) | > 100 µM (inactive) | 35.9 µM (inactive) | 74.5 µM (inactive) | > 100 µM (inactive)
10 | O=C(Cc1ccc(Cl)c(Cl)c1)NCC1(N2CCCCC2)CCCCC1 | > 100 µM (inactive) | 35.3 µM (inactive) | 78.7 µM (inactive) | 35.5 µM (inactive) | 46.3 µM (inactive) | 47.1 µM (inactive) | 21.6 µM (inactive) | 35.5 µM (inactive) | 40.6 µM (inactive) | 50.1 µM (inactive) | 28.8 µM (inactive) | 39.3 µM (inactive) | 55.5 µM (inactive) | 97.3 µM (inactive) | > 100 µM (inactive) | 17 µM (inactive) | 40.1 µM (inactive) | > 100 µM (inactive)
11 | C1CSC2=C(S1)SC1=C(S2)SC(=C2SC3=C(SC4=C(SCCS4)S3)S2)S1 | > 100 µM (inactive) | > 100 µM (inactive) | > 100 µM (inactive) | 87.7 µM (inactive) | > 100 µM (inactive) | > 100 µM (inactive) | > 100 µM (inactive) | > 100 µM (inactive) | > 100 µM (inactive) | > 100 µM (inactive) | > 100 µM (inactive) | > 100 µM (inactive) | > 100 µM (inactive) | > 100 µM (inactive) | > 100 µM (inactive) | > 100 µM (inactive) | > 100 µM (inactive) | > 100 µM (inactive)
12 | NCCCCCCn1c(-c2ccc(Br)cc2)cs/c1=N\c1ccccc1 | 14.6 µM (inactive) | 3.33 µM (inactive) | 12.7 µM (inactive) | 3.51 µM (inactive) | 10.8 µM (inactive) | 12.2 µM (inactive) | 10.9 µM (inactive) | 3.83 µM (inactive) | 4.09 µM (inactive) | 2.01 µM (inactive) | 13.6 µM (inactive) | 10.2 µM (inactive) | 13.8 µM (inactive) | 11.9 µM (inactive) | 14.9 µM (inactive) | 3.75 µM (inactive) | 5.86 µM (inactive) | 14.6 µM (inactive)
13 | Clc1ccc(OCC2NC3C=CC32)cn1 (stereo not drawn) | > 100 µM (inactive) | 34.4 µM (inactive) | 67 µM (inactive) | 39.8 µM (inactive) | > 100 µM (inactive) | > 100 µM (inactive) | > 100 µM (inactive) | 56 µM (inactive) | > 100 µM (inactive) | 59.3 µM (inactive) | > 100 µM (inactive) | > 100 µM (inactive) | > 100 µM (inactive) | > 100 µM (inactive) | > 100 µM (inactive) | > 100 µM (inactive) | > 100 µM (inactive) | > 100 µM (inactive)
14 | COc1ccc2oc(S(=O)(=O)N3CC(CCl)c4ccc([N+](=O)[O-])cc43)cc2c1 (stereo not drawn) | 0.0388 µM (active) | 0.107 µM (active) | 0.533 µM (active) | 0.0521 µM (active) | 0.0177 µM (active) | 0.832 µM (active) | 0.0345 µM (active) | 0.223 µM (active) | 0.0908 µM (active) | 0.0366 µM (active) | 15.1 µM (inactive) | 0.0959 µM (active) | 0.351 µM (active) | 0.22 µM (active) | 0.233 µM (active) | 0.256 µM (active) | 0.116 µM (active) | 0.179 µM (active)
15 | O=C(Oc1ccccn1)c1cc2cc(CCl)ccc2oc1=O | 28.7 µM (inactive) | 35.6 µM (inactive) | 20.7 µM (inactive) | 30.4 µM (inactive) | 51.3 µM (inactive) | 37.5 µM (inactive) | 19 µM (inactive) | 31.2 µM (inactive) | 25.8 µM (inactive) | 32.7 µM (inactive) | 72.1 µM (inactive) | 19.5 µM (inactive) | 22.3 µM (inactive) | 35.6 µM (inactive) | 27 µM (inactive) | 58.9 µM (inactive) | 18.5 µM (inactive) | 43.8 µM (inactive)
16 | O=C1C=CC(=O)N1c1ccc(I)cc1 | 17.5 µM (inactive) | 6.11 µM (inactive) | 21.3 µM (inactive) | 5.77 µM (inactive) | 16.4 µM (inactive) | 23.6 µM (inactive) | 17.9 µM (inactive) | 2.56 µM (inactive) | 15.6 µM (inactive) | 6.01 µM (inactive) | 16.4 µM (inactive) | 7.53 µM (inactive) | 19 µM (inactive) | 31.6 µM (inactive) | > 44.8 µM (inactive) | 19.1 µM (inactive) | 18.3 µM (inactive) | 17.3 µM (inactive)
